These results are taken from patent US12397004B2, “Nasal delivery of low-dose aspirin for the treatment of neurodegenerative and lysosomal storage diseases” (Rush University Medical Center, priority 2018, dated 2025).

One assay concerns CD4+Foxp3+ Tregs. Put plainly: FACS of lymph node cells of EAE mice for Foxp3 and CD4 (Tregs). It is filed as in vivo, female SJL/J mice. Conditions: 0.2 and 0.4 mg/kg body wt/d, nebulization from 9 dpt, 16 dpt. The protocol:
FIG. 3A-3B. Nebulization of low-dose aspirin improves regulatory T cells (Tregs) in vivo in mice with adoptive transfer EAE. Lymph node cells of control, EAE (16 dpt) and low doses of aspirin-treated EAE mice (16 dpt receiving 0.2 and 0.4 mg/kg body wt/d aspirin in 100 μl water from 9 dpt via nebulization) were analyzed by fluorescence activated cell sorting (FACS) for Foxp3 and CD4 (3A). The mean fluorescence intensity (MFI) of Foxp3 in CD4+ population was calculated by using CellQuest software (3B). Data were mean±SEM of four mice per group. ^ap<0.001 vs control; ^bp<0.001 vs EAE by two-samples t-tests. Tregs are most important immunomodulatory subtype of T lymphocytes (Sakaguchi, 2005; Sakaguchi and Powrie, 2007) that are known to suppress EAE and MS. Nebulization of aspirin was further investigated to determine whether nebulization was capable of enriching Tregs in vivo in EAE mice. EAE mice receiving aspirin nebulization from 9 dpt were sacrificed on 16 dpt, followed by analysis of Tregs in lymph node cells (LNC). Foxp3 protein is currently considered as the most important marker of Tregs and by dual fluorescence-activated cell sorting (FACS) staining, we found decrease in CD4^+Foxp3^+ Tregs in LNC of EAE mice (FIG. 3A-B). However, nebulization of EAE mice with aspirin at both 0.2 and 0.4 mg/kg body wt/d doses protected CD4+Foxp3+ Tregs (FIG. 3A-B).

Assay [1] relates to adoptively-transferred EAE. Put plainly: Adoptive-transfer EAE in female SJL/J mice: clinical symptoms, grip test, rotorod after aspirin nebulization. It is filed as in vivo. The note with it: 0.2 and 0.4 mg/kg body wt/d. The method, then: FIG. 2A-2C. Nebulization of low-dose aspirin reduced clinical symptoms of experimental allergic encephalomyetis (EAE) in female SJL/J mice. 2A) EAE was induced in 4-5 week old female SLJ/mice by adoptive transfer of myelin basic protein (MBP) primed T cells and from 9 days post-transfer (dpt), mice were treated with different doses of aspirin once daily for nebulization. Mice (n=6 per group in two independent experiments) were scored daily. On 16 dpt (acute phase), mice were examined for grip test (2B) and rotorod (2C). Results are presented as mean±SEM of six (6) mice per group. ^ap<0.001 vs control; ^bp<0.001 vs EAE by two-samples t-tests. Oral tablets of baby aspirin with a standard dosage of 81 mg were solubilized in hot double distilled water and cooled to room temperature. This liquid formulation was made fresh every week. In mice, an aspirin dose of 1 mg/kg body wt/d aspirin is equivalent to “Baby Aspirin” (81 mg tablet per adult). A Buxco Inhalation Tower All-In-One Controller by DSI™ was used for air supply for nebulization (FIG. 1A). A whole body chamber was fitted with an Aeroneb® Ultrasonic Nebulizer (FIG. 1B) supplied with air from a Buxco bias flow pump. Mice were allowed to nebulize aspirin at doses of […] mg/kg body wt/d (solubilized in a volume of 100 μl double-distilled water/mouse) for 3 min. Therefore, control group of mice also received 100 μl water by nebulization. Experimental allergic encephalomyelitis (EAE) is an animal model of MS, the most common human demyelinating disease. RR-EAE was induced in female SJL/J mice by adoptive transfer of myelin […] (MBP) primed T cells (FIG. 2A). As expected, induction of EAE reduced grip test (FIG. 2B) and rotorod (FIG. 2C) performances of mice. Mice were then nebulized with aspirin (0.2 and 0.4 mg/kg body wt/d in a volume of 100 μl/mouse) from 9 days post-transfer (dpt) of MBP-primed T cells. The control EAE group were treated with only water via nebulization. A dose of 0.2 mg/kg body wt/d aspirin equates to approximately 16 mg per adult. Clinical symptoms were monitored every day until 38 dpt. […]
(The rotarod test checks motor coordination on a turning rod.)

For assay [2], the system named is FAD5× mouse model of AD. The experiment in a line: T-maze, context-dependent hippocampal behavior in FAD5× mice. The note with it: 0.2 and 0.4 mg/kg body wt/d, nebulization, 30 days. In kind it is in vivo. The method, then: FIG. 5A-5E. Nebulization of low-dose aspirin protects memory in the FAD5× mouse model of AD. Six to seven-month old FAD5× mice were treated with low doses (0.2 and 0.4 mg/kg body wt/d) of aspirin via nebulization. After 30 days of treatment, hippocampus-dependent spatial behavior was monitored by Barnes maze. 5A) Representative heat maps summarizing the overall activity of mice on the apparatus recorded with a Noldus camera and visualized by Ethovision XT software. 5B) Latency and 5C) number of errors made by all groups of mice. Context-dependent hippocampal behavior was analyzed by T-maze. 5D) Number of positive turns and 5E) number of negative turns of all groups of mice on an appetitive T-maze conditioning task were manually recorded. Results are presented as mean±SEM of 5 mice per group. ^ap<0.001 vs non-Tg; ^bp<0.001 vs FAD5×; ^cp<0.01 vs non-Tg; ^dp<0.05 vs FAD5×. T-maze apparatus monitors context-dependent hippocampal behavior, which may be a better index to test cognition in mice. […] However, similar to that observed with Barnes maze, nebulization of low doses of aspirin improved the performance of FAD5× mice on T maze as evident by increase in positive turns (FIG. 5D) and decrease in negative turns (FIG. 5E).

Another assay has as its system CD4+IL-17+ T cells. Put plainly: FACS of lymph node cells of EAE mice for IL-17 and CD4 (Th17 response). In kind it is in vivo, female SJL/J mice. Conditions: 0.2 and 0.4 mg/kg body wt/d, nebulization from 9 dpt, 16 dpt. The method, then: FIG. 4A-4B. Nebulization of low-dose aspirin suppresses the Th17 response in vivo in mice with adoptive transfer EAE. Lymph node cells of control, EAE (16 dpt) and low doses of aspirin-treated EAE mice (16 dpt receiving 0.2 and 0.4 mg/kg body wt/d aspiring in 100 μl water from 9 dpt via nebulization) were analyzed by FACS for IL-17 and CD4 (4A). The MFI of IL-17 in CD4+ population was calculated by using CellQuest software (4B). Data were mean±SEM of four mice per group. ^ap<0.001 vs control; ^bp<0.001 vs EAE by two-samples t-tests. T helper cell 17 (Th17) cells are considered to play a more important role than Th1 cells in the disease process of EAE and MS (El-behi et al., 2010). Since aspirin nebulization enriched Tregs, aspirin nebulization was tested to determine if aspirin nebulization was capable of suppressing Th17 response in vivo in EAE mice. Th17 cells are characterized by expression of IL-17 (Shi et al., 2008). […] However, nebulization of EAE mice with aspirin led to the suppression of the CD4+IL-17+ T cell population in LNC (FIG. 4A). This is also corroborated by mean fluorescence intensity (MFI) analysis of IL-17 within the CD4+ population (FIG. […]).

For assay [3], the system named is FAD5× mouse model of AD. Conditions: oral, 2 mg/kg body wt/d; cited from earlier work.
Assay [4] relates to FAD5× mouse model of AD. Put plainly: Barnes maze, hippocampus-dependent spatial behavior in FAD5× mice. It is filed as in vivo. The note with it: 0.2 and 0.4 mg/kg body wt/d, nebulization, 30 days. The protocol:
FIG. 5A-5E. Nebulization of low-dose aspirin protects memory in the FAD5× mouse model of AD. Six to seven-month old FAD5× mice were treated with low doses (0.2 and 0.4 mg/kg body wt/d) of aspirin via nebulization. After 30 days of treatment, hippocampus-dependent spatial behavior was monitored by Barnes maze. 5A) Representative heat maps summarizing the overall activity of mice on the apparatus recorded with a Noldus camera and visualized by Ethovision XT software. 5B) Latency and 5C) number of errors made by all groups of mice. Context-dependent hippocampal behavior was analyzed by T-maze. 5D) Number of positive turns and 5E) number of negative turns of all groups of mice on an appetitive T-maze conditioning task were manually recorded. Results are presented as mean±SEM of 5 mice per group. ^ap<0.001 vs non-Tg; ^bp<0.001 vs FAD5×; ^cp<0.01 vs non-Tg; ^dp<0.05 vs FAD5×. A Buxco Inhalation Tower All-In-One Controller by DSI™ was used for air supply for nebulization (FIG. 1A). A whole body chamber was fitted with an Aeroneb® Ultrasonic Nebulizer (FIG. 1B) supplied with air from a Buxco bias flow pump. […] Hippocampus-dependent spatial learning and cognitive behavior can be reliably monitored in the Barnes maze test (Roy et al., 2013; Roy et al., 2015).

The test system of assay [5] is Aβ immunoreactive plaques. Put plainly: DAB immunostaining (6E10) of hippocampal sections, plaque load in FAD5× mice. It is filed as in vivo. The note with it: 0.2 and 0.4 mg/kg body wt/d, nebulization, 30 days, 6E10 DAB staining. The protocol: FIG. 7A-7B: Nebulization of very low-dose aspirin lowers cerebral plaque load in an animal model of AD. Six-month old FAD5× transgenic mice were treated with 0.2 mg/kg body wt/d and 0.4 mg/kg body wt/d aspirin via nebulization using the Buxco Inhalation Tower. After 30 days of treatment, A) diaminobenzidine (DAB) staining was performed in hippocampal sections using 6E10 antibody. B) Quantification of number of plaques in the hippocampus relative to nontransgenic. Two sections (two images per section) of each of five mice per group were used in counting. All data are represented as mean±SEM. ^ap<0.001 vs non-Tg; ^bp<0.001 vs. FAD5×. Next, in order to check the amyloid deposition in the brain, hippocampal sections were labeled with 6E10 antibody by diaminobenzidine immunostaining. Parallel to the immunoblot results, there was marked abundance of AP immunoreactive plaques in the hippocampus of Tg mice (FIG. 7A-B).

Another assay has as its system Aβ. The experiment in a line: Western blot of Aβ in hippocampal extracts of FAD5× mice (6E10 and 82E1 antibodies). It is filed as in vivo. The note with it: 0.2 and 0.4 mg/kg body weight/d, nebulization, 30 days, immunoblot. The protocol:
FIG. 6A-6D: Nebulization of very low-dose aspirin lowers cerebral plaque load in an animal model of AD. Six-month old FAD5× transgenic mice were treated with 0.2 mg/kg body wt/d and 0.4 mg/kg body wt/d aspirin via nebulization using the Buxco Inhalation Tower. After 30 days of treatment, Aβ levels were monitored in hippocampal extracts by Western blot analysis (A & C) and densitometric analysis (B & D) using 6E10 (A & B) and 82E1 (C & D) antibodies. Actin was used as loading control. Results are presented as mean±SEM of 4 mice per group. ^ap<0.001 vs non-Tg; ^bp<0.001 vs. FAD5×. To explore whether nebulization of very low-dose aspirin was capable of reducing the amyloid load in the hippocampus, the most affected brain region in AD, of FAD5× (Tg) mice, the following experiment was performed. […] The 82E1 is known to detect both soluble and fibrillar human Aβ to a similar degree.

A further assay deals with myelin. Put plainly: Demyelination in spinal cord of EAE mice (MBP immunostaining, Luxol fast blue). It is filed as in vivo, female SJL/J mice. The note with it: 0.2 and 0.4 mg/kg body wt/d, nebulization from onset of acute phase, MBP and LFB staining. The method, then: FIG. 8A-8C: Nebulization of very low-dose aspirin protects myelin in experimental autoimmune encephalomyelitis (EAE), a mouse model of multiple sclerosis. EAE was induced in female SJL/J mice (4-6 week old) by adoptive transfer of MBP-primed T cells. Mice were treated with 0.2 mg/kg body wt/d and 0.4 mg/kg body wt/d aspirin via nebulization using the Buxco Inhalation Tower from the onset of acute phase. A) Spinal cord sections were immunostained with MBP (red). B) Sections were also stained with Luxol fast blue. Digital images were collected under bright field setting using a 40× objective. Demyelination was represented quantitatively (C). Data are expressed as the mean±SEM of five different mice per group. […]. EAE is an animal model of human demyelinating disease multiple sclerosis (MS). It was determined whether aspirin nebulization decreased demyelination in mice with EAE. To examine demyelination, spinal cord sections were stained with MBP, a major component of myelin. Moreover, spinal cord sections were also stained with luxol fast blue (LFB), which reacts with myelin. As evident from MBP immunostaining (FIG. 8A) and LFB staining (FIG. 8B), there were widespread demyelination zones in the white matter in mice with EAE.

Setting [6] is: nebulization from 9 dpt, tested 16 dpt.

`CC(=O)Oc1ccccc1C(=O)O` [aspirin, acetylsalicylic acid]: the “CD4+Foxp3+ Tregs in lymph node cells” value with CD4+Foxp3+ Tregs is “protected”. Further, in assay [1] (setting [6]), the “grip test activity of EAE mice” value is listed as “significantly improved” and the “rotorod activity of EAE mice” value is recorded as “significantly improved”. Moreover, the “clinical manifestations of adoptively-transferred EAE” value in assay [1] (nebulization once daily from 9 dpt, monitored until 38 dpt) is on record as “strongly inhibited”. Besides, in the assay on FAD5× mouse model of AD [2], the T-maze negative turns result is on record as “decrease” and the T-maze positive turns entry was “increase”. Further, in the assay with CD4+IL-17+ T cells, the “CD4+IL-17+ T cell population in lymph node cells” value is given as “suppression”. Besides, the memory and learning entry in the assay with FAD5× mouse model of AD [3] was “protect memory and learning”. In addition, in the assay on FAD5× mouse model of AD [4], the Barnes maze errors entry is “decreased” and the Barnes maze latency entry was “significantly improved”. Also, the “plaque load in the hippocampus” value in assay [5] is reported as “decreasing the plaque load”. In the assay with Aβ, the “level of Aβ in the hippocampus, 6E10 antibody” value is listed as “significantly reduced”. Also, the “loss of myelin in the spinal cord (demyelination)” value in the assay with myelin is reported as “prevented the loss of myelin”.
